Laboratory results taken from article PMC7371863, “Intracellular interplay between cholecystokinin and leptin signalling for satiety control in rats” (Scientific Reports, 2020).

Key:
[1] = tested on: CCK-1 and CCK-2 receptors (C6 cells); test: Ca2+ imaging (Fura-2), CCK-8s response in C6 cells; format: cell-based, rat; conditions: CCK-8s 10 nM; n = 103/five dishes; Fura-2, 34°C, BSS pH 7.4
Method: (§1) Rat C6 glioma cells were cultured in Dulbecco’s Modified Eagle Medium/F12 (DMEM/F12) supplemented with 10% FBS, sodium bicarbonate (1.2 g/L), and 1% penicillin/streptomycin antibiotics at 37 °C in 5% CO2. The full-length mouse leptin receptor (ObRb) in pcDNA3.1 vector was kindly provided by Dr. Christian Bjørbaek (BIDMC, Harvard Medical School, Boston, MA, USA) and transfected using Lipofectamine 2000. Subsequently, the cells were cultured in medium containing 500 μg/mL G418 for cell selection.
(§2) C6 cells plated on 35 mm plastic dishes were gently rinsed with buffered salt solution (BSS) consisting of 130 mM NaCl, 5.4 mM KCl, 2 mM CaCl2, 1 mM MgCl2, 5.5 mM D-glucose, and 10 mM HEPES/NaOH (pH 7.4), and incubated in BSS supplemented with 6 µM Fura-2 AM (Dojindo Laboratories, Kumamoto, Japan) for 30 min in a CO2 incubator. Prior to photometry, the cells were rinsed again with BSS, incubated at 37°C for 15 min, and then continuously perfused with BSS at 34°C at a flow rate of 3 mL/min. Fluorescence images were obtained using an upright microscope (Axioplan2; Carl Zeiss, Thornwood, NY, USA) with a water-immersion objective (Achroplan×20 NA0.5w; Carl Zeiss). The wavelength of the excitation UV light (340 nm or 380 nm pulse; 250 msec) was switched using a filter wheel (Lambda 10-2; Sutter Instruments, Novato, CA, USA). […] The background fluorescence was also subtracted using the software. […]

[2] = tested on: primary cultures of rat nodose ganglion neurons; conditions: CCK-8s treatment, co-stimulation with leptin; cited from earlier work
Source text: An important observation in C6 models, other than intracellular Ca^2+ signalling, is the reduction in leptin-induced nuclear pSTAT3 accumulation by co-stimulation with CCK-8s. The level of pSTAT3 following co-stimulation with CCK-8s and leptin has been analyzed in primary cultures of rat nodose ganglion neurons[53],[54].

[3] = tested on: oxytocin neurons in the hypothalamic paraventricular nucleus; conditions: leptin administration; cited from earlier work
Source text: (§3) Also, the effect of CCK on satiety control is attenuated in Zucker fa/fa rats lacking functional leptin receptors. In addition, other evidence implicated that leptin-mediated satiety-controlling systems may strongly interact with CCK systems[18],[50]–[54]. For example, c-Fos expression in oxytocin neurons in the hypothalamic paraventricular nucleus is elevated by leptin administration, and these neurons have axons tha ...

[4] = tested on: nucleus tractus solitarius; conditions: fourth ventricular injection of leptin; cited from earlier work
Source text: as §3

[5] = tested on: megakaryoblast cells; conditions: co-stimulation with leptin; cited from earlier work
Source text: It was previously shown that ADP-induced Ca^2+ mobilization, presumably via Gq-coupled P2Y receptor, was enhanced by co-stimulation with leptin in megakaryoblast cells. Since leptin could phosphorylate the tyrosine residue of Gqα protein by JAK2 (i.e., in AG490-dependent manner) in these cells, leptin could facilitate CCK receptor signalling similarly in C6 cells. […] Thus, further downstream signalling might also involve the activation of p ...

[6] = tested on: meal frequency / meal size; conditions: leptin; cited from earlier work
Source text: Although CCK and leptin have been commonly described as satiety controlling peptides, their differential roles have also been highlighted. […] Among the wide variety of intracellular signalling machineries linked to ObRb, it is still uncertain which pathway(s) is/are linked to what type of satiety controls. pSTAT3-ir is used as a genera ...

[7] = tested on: cerebellar granule cell cultures; conditions: via MAPK pathways; cited from earlier work
Source text: (§4) A product of the obese gene, leptin, is a peptide hormone secreted from white adipocyte tissue, also known as a satiety-controller[31]–[33]. […] Splice variants (ObRa–ObRe) have been identified for leptin receptors and only the full-length isoform (ObRb) contains the intracellular motifs required for the initiation of intracellular signalling. ObRb is a single-transmembrane receptor that interacts with diverse signalling molecules[ ...

[8] = tested on: hypothalamic astrocyte cultures; conditions: cited from earlier work
Source text: as §4

[9] = tested on: primary cultures of ventromedial hypothalamus (VMN and ARC neurons); conditions: depending on cell populations; cited from earlier work
Source text: as §4

[10] = tested on: dissociated ARC neurons; conditions: cited from earlier work
Source text: as §4

[11] = tested on: wild-type C6 cells; test: Ca2+ imaging (Fura-2), leptin and CCK-8s signalling interaction in wild-type C6 cells; format: cell-based, rat; conditions: leptin 100 nM
Method: as §1
C6 cells plated on 35 mm plastic dishes were gently rinsed with buffered salt solution (BSS) consisting of 130 mM NaCl, 5.4 mM KCl, 2 mM CaCl2, 1 mM MgCl2, 5.5 mM D-glucose, and 10 mM HEPES/NaOH (pH 7.4), and incubated in BSS supplemented with 6 µM Fura-2 AM (Dojindo Laboratories, Kumamoto, Japan) for 30 min in a CO2 incubator. Prior to photometry, the cells were rinsed again with BSS, incubated at 37°C for 15 min, and then continuously perfused with BSS at 34°C at a flow rate of 3 mL/min. Fluorescence images were obtained using an upright microscope (Axioplan2; Carl Zeiss, Thornwood, NY, USA) with a water-immersion objective (Achroplan×20 NA0.5w; Carl Zeiss). The wavelength of the excitation UV light (340 nm or 380 nm pulse; 250 msec) was switched using a filter wheel (Lambda 10-2; Sutter Instruments, Novato, CA, USA). The UV light was generated by a full spectrum 300W Xenon bulb (Lambda LS; Sutter Instruments), conducted to the microscope through a liquid light guide. The pair of fluorescent images was processed using a band-pass filter (485–515 nm) and exposed to a multiple format cooled CCD camera (CoolSnap-fx; Photometrics, Tucson, AZ, USA) at 6-sec intervals. The filter wheel and the CCD camera were controlled using digital imaging software (MetaFluor ver. 6.2; Japan Molecular Devices, Tokyo, Japan). The background fluorescence was also subtracted using the software.
During image acquisition, leptin (PeproTech, Rocky Hill, NJ, USA), CCK-4 (Peptide Institute, Inc., Osaka, Japan), CCK-8s (Sigma-Aldrich, St. Louis, MO, USA), AG490 (Calbiochem, San Diego, CA), LY294002 (Calbiochem), LY225910 (R&D Systems, Minneapolis, MN, USA), LGM (LKT Laboratories Inc., St. Paul, MN, USA), and ATP (Sigma-Aldrich) were applied by switching the perfusate. The magnitude of Ca^2+ responses was determined by peak area analysis using Origin 5.0 software (OriginLab, Northampton, MA, USA).

[12] = tested on: C6-ObRb cells (mouse leptin receptor ObRb); test: Ca2+ imaging (Fura-2) in C6 cells overexpressing mouse ObRb (C6-ObRb); format: cell-based, rat C6 cells
Method: as §1, §2

[13] = tested on: porcine adrenal medullary chromaffin cells; conditions: cited from earlier work
[14] = tested on: cultured vagal afferent neurons; conditions: cited from earlier work

| Substance | C6 cells displaying Ca2+ transients on re-stimulation [1] | total pSTAT3 [2] | c-Fos expression in oxytocin neurons [3] | CCK-induced satiety response [4] | c-Fos expression in the nucleus tractus solitarius [4] | ADP-induced Ca2+ mobilization [5] | meal size and meal frequency [6] | action on N-methyl-D-aspartate-induced Ca2+ influx [7] | cytosolic Ca2+ after leptin stimulation [8] | intrinsic Ca2+ oscillations [9] | ghrelin-induced Ca2+ elevation [10] | Ca2+ transients by leptin treatment alone, wild-type C6 cells ([11]; 5 min or 500 nM, 5 min, n = 185/eight dishes) | amplification in the magnitude of CCK-8s-induced Ca2+ mobilization ([11]; 5 min pre-treatment, CCK-8s 10 nM, n = 115/five dishes) | magnitude of Ca2+ response by co-stimulation, C6-ObRb versus wild-type ([12]; leptin 100 nM and CCK-8s 10 nM, n = 84/four dishes, Student's t-test) | Ca2+ transients by leptin treatment alone, C6-ObRb ([12]; leptin 100 nM, 5 min or 500 nM, 5 min, n = 190/11 dishes) | cytosolic Ca2+ after leptin stimulation [13] | cytosolic Ca2+ after leptin stimulation [14] |
| --- | --- | --- | --- | --- | --- | --- | --- | --- | --- | --- | --- | --- | --- | --- | --- | --- | --- |
| CCK-8s [reference compound] | 32% | significant increase in pSTAT3 | – | – | – | – | – | – | – | – | – | – | – | – | – | – | – |
| leptin: peptide hormone secreted from white adipocyte tissue, product of the obese gene; PeproTech Cat#450-31 | – | – | elevated | enhanced the CCK-induced satiety response | failed to increase c-Fos expression | enhanced | reduces meal size but does not alter meal frequency | excitatory actions | monophasic cytosolic Ca^2+ elevation | increased or decreased intrinsic Ca^2+ oscillations | inhibited | failed to evoke Ca^2+ transients | ~ 5 times | not significantly different from that in wild-type C6 cells | failed to evoke Ca^2+ transients | cytosolic Ca^2+ increase | cytosolic Ca^2+ increase |
